The target of experiment [1] is T1, Sentrin-specific protease 8 (Homo sapiens, UniProt Q96LD8).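 Further: luminescence read-out of SENP8 inhibition, dose-response confirmation following an ultra-high-throughput screen.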
T1 sequence (Q96LD8 whole entry): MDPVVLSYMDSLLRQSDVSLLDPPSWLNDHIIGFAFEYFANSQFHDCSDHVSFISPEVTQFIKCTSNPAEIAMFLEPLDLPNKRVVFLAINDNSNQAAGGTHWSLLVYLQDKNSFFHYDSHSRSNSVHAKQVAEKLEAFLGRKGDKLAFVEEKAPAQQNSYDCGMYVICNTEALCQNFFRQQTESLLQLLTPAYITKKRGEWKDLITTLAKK
The experiment is classed as functional.

Experiment [2] concerns the target T2, Sentrin-specific protease 6 (Homo sapiens, UniProt Q9GZR1).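 Further: Luminescence-based dose-response confirmatory assay of SENP6 inhibition, following up an ultra-high-throughput screen.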
T2 sequence (Q9GZR1 whole entry): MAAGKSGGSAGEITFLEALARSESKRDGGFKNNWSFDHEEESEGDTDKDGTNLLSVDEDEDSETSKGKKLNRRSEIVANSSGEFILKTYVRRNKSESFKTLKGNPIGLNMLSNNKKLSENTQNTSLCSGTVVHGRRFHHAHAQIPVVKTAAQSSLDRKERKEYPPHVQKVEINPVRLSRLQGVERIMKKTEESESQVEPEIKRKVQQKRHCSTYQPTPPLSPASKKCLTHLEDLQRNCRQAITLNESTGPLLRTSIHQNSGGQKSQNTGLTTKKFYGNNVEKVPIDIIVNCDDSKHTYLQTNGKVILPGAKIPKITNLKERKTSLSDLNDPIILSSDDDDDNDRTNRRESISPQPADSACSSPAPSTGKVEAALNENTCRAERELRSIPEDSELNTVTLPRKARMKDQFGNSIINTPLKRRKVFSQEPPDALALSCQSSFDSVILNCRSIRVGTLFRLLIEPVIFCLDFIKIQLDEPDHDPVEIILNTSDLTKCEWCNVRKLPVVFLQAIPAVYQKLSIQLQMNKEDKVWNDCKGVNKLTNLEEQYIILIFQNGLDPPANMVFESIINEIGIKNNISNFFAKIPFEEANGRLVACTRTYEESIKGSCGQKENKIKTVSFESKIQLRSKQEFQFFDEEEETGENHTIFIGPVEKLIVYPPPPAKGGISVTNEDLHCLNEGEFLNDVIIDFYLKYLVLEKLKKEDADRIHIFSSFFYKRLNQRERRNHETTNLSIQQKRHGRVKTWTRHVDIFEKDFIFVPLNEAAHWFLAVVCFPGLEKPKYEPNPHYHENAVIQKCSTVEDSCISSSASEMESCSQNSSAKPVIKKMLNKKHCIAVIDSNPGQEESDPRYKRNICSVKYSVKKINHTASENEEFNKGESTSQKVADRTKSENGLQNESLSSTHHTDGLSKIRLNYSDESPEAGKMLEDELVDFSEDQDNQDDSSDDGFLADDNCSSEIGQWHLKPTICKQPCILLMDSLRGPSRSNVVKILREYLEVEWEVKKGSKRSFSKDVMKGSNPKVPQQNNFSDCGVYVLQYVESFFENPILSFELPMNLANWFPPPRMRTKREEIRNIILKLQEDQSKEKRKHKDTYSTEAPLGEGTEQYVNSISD
The experiment is classed as functional.

For experiment [3], the target named is T3, Sentrin-specific protease 7 (Homo sapiens, UniProt Q9BQF6).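 Further: Luminescence-based dose-response confirmation of ultra-high-throughput screening hits, measuring inhibition of SENP7.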
T3 sequence (Q9BQF6 whole entry): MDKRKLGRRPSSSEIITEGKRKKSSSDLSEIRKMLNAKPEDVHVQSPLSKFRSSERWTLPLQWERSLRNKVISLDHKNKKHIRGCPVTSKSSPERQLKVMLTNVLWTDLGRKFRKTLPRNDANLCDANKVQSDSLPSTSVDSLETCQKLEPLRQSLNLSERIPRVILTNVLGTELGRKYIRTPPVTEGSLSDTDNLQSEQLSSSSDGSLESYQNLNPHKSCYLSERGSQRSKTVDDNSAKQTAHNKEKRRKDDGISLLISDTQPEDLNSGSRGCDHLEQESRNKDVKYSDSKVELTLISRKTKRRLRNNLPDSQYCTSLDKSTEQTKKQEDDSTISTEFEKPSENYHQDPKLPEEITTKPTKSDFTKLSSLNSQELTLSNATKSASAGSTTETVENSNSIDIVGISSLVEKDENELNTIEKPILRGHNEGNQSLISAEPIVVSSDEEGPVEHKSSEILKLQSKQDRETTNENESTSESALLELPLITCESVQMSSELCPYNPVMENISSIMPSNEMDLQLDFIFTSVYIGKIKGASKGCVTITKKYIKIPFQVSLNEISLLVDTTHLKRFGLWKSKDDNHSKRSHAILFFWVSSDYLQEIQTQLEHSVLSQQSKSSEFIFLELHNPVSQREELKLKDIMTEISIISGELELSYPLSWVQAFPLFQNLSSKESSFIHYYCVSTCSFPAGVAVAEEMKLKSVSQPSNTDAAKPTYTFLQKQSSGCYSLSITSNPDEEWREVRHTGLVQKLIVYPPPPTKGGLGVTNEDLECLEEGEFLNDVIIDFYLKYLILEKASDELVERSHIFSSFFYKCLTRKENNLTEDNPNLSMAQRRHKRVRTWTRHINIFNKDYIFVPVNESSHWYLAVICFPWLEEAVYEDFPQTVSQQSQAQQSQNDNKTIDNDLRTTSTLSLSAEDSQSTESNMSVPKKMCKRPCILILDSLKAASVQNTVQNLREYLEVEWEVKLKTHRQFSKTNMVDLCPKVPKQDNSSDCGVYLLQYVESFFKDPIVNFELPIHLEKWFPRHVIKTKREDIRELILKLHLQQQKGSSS
The experiment is classed as functional.

Experiment [4] has as its target T4, Caspase-3 (Homo sapiens, UniProt P42574).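 Further: Dose-response selectivity test against caspase-3 for candidate inhibitors of sentrin-specific proteases (SENPs).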
T4 sequence (P42574 whole entry): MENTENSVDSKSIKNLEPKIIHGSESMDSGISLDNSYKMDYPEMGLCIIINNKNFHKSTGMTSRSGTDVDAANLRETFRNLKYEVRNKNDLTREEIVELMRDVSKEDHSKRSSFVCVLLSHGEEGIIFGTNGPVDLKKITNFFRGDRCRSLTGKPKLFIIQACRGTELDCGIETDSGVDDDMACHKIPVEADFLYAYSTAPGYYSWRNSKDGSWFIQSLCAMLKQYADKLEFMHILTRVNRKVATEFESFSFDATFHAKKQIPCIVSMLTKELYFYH
The class given is functional.

Experiment [5] addresses T5, DNA repair and recombination protein RAD54-like (Homo sapiens, UniProt Q92698).
T5 sequence (Q92698 whole entry): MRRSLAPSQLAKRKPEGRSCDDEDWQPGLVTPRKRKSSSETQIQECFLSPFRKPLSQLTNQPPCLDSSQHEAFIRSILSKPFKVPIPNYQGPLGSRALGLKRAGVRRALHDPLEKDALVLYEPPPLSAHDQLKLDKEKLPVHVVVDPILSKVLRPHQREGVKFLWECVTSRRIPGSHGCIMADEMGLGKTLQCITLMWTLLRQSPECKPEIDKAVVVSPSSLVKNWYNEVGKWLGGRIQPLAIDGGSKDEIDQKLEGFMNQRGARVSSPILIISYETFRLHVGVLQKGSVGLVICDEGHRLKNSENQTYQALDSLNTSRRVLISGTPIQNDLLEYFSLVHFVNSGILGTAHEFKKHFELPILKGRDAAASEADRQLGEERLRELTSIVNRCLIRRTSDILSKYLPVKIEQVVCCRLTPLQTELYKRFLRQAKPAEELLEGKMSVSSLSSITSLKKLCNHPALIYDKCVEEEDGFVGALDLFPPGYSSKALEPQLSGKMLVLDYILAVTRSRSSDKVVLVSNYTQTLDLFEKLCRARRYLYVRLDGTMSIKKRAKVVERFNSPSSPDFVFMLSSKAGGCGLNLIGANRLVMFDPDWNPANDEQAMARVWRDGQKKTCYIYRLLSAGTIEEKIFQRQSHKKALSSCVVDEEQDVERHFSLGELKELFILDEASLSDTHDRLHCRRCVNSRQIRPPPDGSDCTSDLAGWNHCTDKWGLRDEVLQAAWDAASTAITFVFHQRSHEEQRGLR
Nature of the experiment: RAD54 Holliday junction migration blockers – biochemical, fluorescence, cherry-picked samples, dose series, confirmation (AID 651657). The class given is functional.

The target of experiment [6] is Cytochrome P450 2D6 (Homo sapiens, UniProt P10635).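 Further: CYP2D6 member of a cytochrome P450 panel assay.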
Cytochrome P450 2D6, sequence (P10635 whole entry): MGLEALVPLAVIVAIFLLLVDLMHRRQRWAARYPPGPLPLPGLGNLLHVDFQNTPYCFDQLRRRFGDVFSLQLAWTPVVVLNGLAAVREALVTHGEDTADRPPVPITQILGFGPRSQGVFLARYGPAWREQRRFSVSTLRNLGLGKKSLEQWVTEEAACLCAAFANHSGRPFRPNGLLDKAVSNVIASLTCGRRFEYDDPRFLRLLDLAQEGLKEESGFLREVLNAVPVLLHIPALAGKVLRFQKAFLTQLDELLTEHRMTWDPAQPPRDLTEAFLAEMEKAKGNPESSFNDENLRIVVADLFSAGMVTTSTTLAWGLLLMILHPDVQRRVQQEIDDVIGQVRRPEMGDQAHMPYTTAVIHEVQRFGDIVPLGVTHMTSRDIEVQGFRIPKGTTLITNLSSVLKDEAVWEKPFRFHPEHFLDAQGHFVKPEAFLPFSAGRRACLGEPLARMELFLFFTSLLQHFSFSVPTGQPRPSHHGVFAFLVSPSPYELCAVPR
Experiment [7] addresses T6, Heat shock factor protein 1 (Mus musculus, UniProt P38532).
T6 sequence (P38532 whole entry): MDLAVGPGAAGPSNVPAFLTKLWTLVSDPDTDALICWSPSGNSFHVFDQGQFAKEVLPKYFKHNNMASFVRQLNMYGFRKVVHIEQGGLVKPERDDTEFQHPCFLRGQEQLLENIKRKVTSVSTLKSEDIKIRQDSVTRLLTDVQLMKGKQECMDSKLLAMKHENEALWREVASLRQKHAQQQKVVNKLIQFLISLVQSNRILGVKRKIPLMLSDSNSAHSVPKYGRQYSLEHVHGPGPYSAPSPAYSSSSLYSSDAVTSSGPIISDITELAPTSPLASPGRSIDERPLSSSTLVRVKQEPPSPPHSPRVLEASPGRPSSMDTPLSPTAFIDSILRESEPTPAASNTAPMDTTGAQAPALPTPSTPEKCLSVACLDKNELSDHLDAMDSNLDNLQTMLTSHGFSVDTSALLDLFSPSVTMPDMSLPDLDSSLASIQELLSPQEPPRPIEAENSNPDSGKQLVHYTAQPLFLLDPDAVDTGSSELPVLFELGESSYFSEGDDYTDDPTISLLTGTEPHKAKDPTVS
Briefly: enhancement of HSF1-driven luciferase signal – cell-based, NIH3T3, luminescence, dose retest, confirmation (AID 435004).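 Further: stress induced by proteasome inhibitor MG132 added 30 min after compound; luciferase reporter driven by HSF1 response element in NIH3T3 cells; actives raise luminescence as potentiators of the MG132 stress response.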 The class given is functional.

The source made the active and inactive calls. For most assays here, no stated cut-off is given here; in the data, actives have a measured IC50 and inactives only a lower limit.

As to `CCOc1ccccc1NC(=O)Nc1ccc2c(c1)CCC2`, the IC50 was 9.29 µM (active) in experiment [1], 9.82 µM (active) in experiment [2], 5.64 µM (active) in experiment [3] and 30.8 µM (active) in experiment [4].

With `O=C(Nc1cccc(Cl)c1)c1cc(S(=O)(=O)N2CCOCC2)cs1`, the concentration at half-maximal activity (AC50) in experiment [5] was 30.1 µM (active).

As to `CCOC(=O)Nc1ccc(C(=O)Oc2ccccc2)c(O)c1`, the IC50 was 79.9 µM (active) in experiment [1], 47.6 µM (active) in experiment [2], 11.6 µM (active) in experiment [3] and 61.3 µM (active) in experiment [4]. In experiment [6], the AC50 was 25.1 µM (inconclusive). Also, the EC50 in experiment [7] is 49.2 µM (active).

In the case of `CN1CCN(c2nc(-c3cccs3)nc3ccccc23)CC1`, the AC50 in experiment [5] is 8.93 µM (active).

For `CSc1ccccc1NC(=O)c1cc(C2CC2)on1`, the IC50 was 33.3 µM (active) in experiment [1], 30.7 µM (active) in experiment [2], 10.1 µM (active) in experiment [3] and 18.6 µM (active) in experiment [4].

Turning to `COc1ccc(/C(C)=N/OCC(=O)Nc2nc3ccccc3s2)cc1OC`, the IC50 is 62.2 µM (active) in experiment [1], 36.1 µM (active) in experiment [2], 9.91 µM (active) in experiment [3] and 49.3 µM (active) in experiment [4].

For orientation: IC50 means the concentration that inhibits the measured activity by half. One may read the AC50 as the concentration giving half of the maximal activity seen. Usually EC50 stands for the concentration that produces a half-maximal response.

The values are drawn from ChEMBL document CHEMBL1201862, “PubChem BioAssay data set” (2004).
